# Laboratory results published in ChEMBL document CHEMBL1201862, “PubChem BioAssay data set” (2004).
# The source made the active and inactive calls.
# What was measured:
# [1] = HIV-1 AD8 envelope cell-cell fusion blockers – cherry-pick, dose response (AID 652062); assay type: functional, cell-based;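 note: luciferase signal from cell-cell fusion driven by HIV-1 clade B AD8 Env; potency is for inhibitors of fusion seen as a drop in luminescence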
# Prothrombin = Prothrombin (Homo sapiens, UniProt P00734); test: Thrombin 1536 HTS Dose Response Confirmation. [Related pubchem assays: 1046 (Thrombin 1536 HTS; hits were confirmed in this assay)]; assay type: functional
# [2] = Dd2 malaria parasite growth inhibition potency – SYBR Green, dry powder samples, dose response (AID 1159566); assay type: functional, cell-based;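 note: potency for growth inhibition with lower SYBR green DNA signal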
# [3] = P. falciparum Dd2 growth inhibitors, dose response, SYBR Green, cherry-picked samples (AID 1159567); assay type: functional, cell-based
# [4] = growth inhibition of yeast DHODH-expressing 3D7 parasites – SYBR Green, dry powder samples, dose response (AID 1159570); assay type: functional, cell-based;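 note: parasite growth measured after 72 hours of compound exposure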
# [5] = growth inhibition of PfATP4-mutant resistant parasites – NITD609-resistant line, SYBR Green, dry powder, dose response (AID 1159571); assay type: functional, cell-based;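 note: parasites synchronized at ring stage by sorbitol before testing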
# [6] = target: T1, Rac GTPase-activating protein 1 (Homo sapiens, UniProt Q9H0H5); test: blockers of MgcRacGAP-driven Rac1 GTP hydrolysis – biochemical, ADP Hunter fluorescence, primary and confirmatory, confirmation (AID 624330); assay type: functional
# T1 sequence (Q9H0H5 whole entry): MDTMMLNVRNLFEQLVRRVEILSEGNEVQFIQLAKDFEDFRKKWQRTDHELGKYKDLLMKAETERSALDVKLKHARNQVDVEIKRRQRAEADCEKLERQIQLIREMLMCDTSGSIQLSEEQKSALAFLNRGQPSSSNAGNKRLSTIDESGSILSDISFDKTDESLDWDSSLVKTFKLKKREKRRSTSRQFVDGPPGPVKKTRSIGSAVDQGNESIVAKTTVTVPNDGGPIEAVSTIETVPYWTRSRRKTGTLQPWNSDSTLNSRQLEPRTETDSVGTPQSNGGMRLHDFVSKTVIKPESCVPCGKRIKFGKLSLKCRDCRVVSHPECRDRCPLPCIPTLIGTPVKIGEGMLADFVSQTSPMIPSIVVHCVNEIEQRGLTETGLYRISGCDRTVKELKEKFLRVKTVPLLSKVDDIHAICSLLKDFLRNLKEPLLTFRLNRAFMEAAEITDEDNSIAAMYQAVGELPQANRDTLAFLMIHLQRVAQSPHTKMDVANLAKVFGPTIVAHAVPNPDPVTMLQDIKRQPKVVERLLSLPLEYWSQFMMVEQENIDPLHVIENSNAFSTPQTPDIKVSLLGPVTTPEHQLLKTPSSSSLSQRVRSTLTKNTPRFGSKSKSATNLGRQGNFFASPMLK
# [7] = viability loss in HeLa cells – cytotoxicity control for MgcRacGAP inhibitor project, dose response (AID 624300); assay type: functional
# [8] = target: Dual specificity tyrosine-phosphorylation-regulated kinase 1A (Rattus norvegicus, UniProt Q63470); assay type: biochemical, Homo sapiens
# [9] = toxicity to human hepatoma HepG2 cells – cell-based, cherry-picked samples, cytotoxicity control, dose response (AID 1159577); assay type: functional
# [10] = Late stage assay provider results from the probe development effort to identify selective inhibitors of heat shock protein 90 (HSP90): Absorbance-based cell proliferation assay in SKBR3 cells.; assay type: functional; conditions: SK-BR-3
# [11] = Late stage assay provider results from the probe development effort to identify selective inhibitors of heat shock protein 90 (HSP90): Absorbance-based cell proliferation assay in MCF7 cells.; assay type: functional
# [12] = target: T2, Trace amine-associated receptor 1 (Homo sapiens, UniProt Q96RJ0); test: Fluorescence-based cell-based high throughput dose response assay to identify agonists of the human trace amine associated receptor 1 (TAAR1).; assay type: functional
# T2 sequence (Q96RJ0 whole entry): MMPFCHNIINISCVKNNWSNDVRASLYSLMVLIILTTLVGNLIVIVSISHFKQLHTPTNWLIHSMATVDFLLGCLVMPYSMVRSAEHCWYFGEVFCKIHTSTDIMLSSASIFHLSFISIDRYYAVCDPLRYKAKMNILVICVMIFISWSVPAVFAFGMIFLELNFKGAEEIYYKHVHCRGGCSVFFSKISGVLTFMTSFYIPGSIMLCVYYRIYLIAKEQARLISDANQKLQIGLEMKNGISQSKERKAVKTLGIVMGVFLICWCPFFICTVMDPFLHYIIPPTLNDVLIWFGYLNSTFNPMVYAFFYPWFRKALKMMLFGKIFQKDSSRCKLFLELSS
# [13] = A549 cell cytotoxicity, dose response, cytotoxicity control, plate reader, cherry-pick, antagonist series (AID 743412); assay type: functional, cell-based
# [14] = blockers of bursicon-stimulated LGR2 cAMP reporter – cell-based, HEK293, CRE-luciferase reporter, cherry pick, set 2, dose response (AID 743343); assay type: functional;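 note: transfected cells were stimulated with diluted bursicon conditioned medium after compound addition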
# cells [15] = assay type: functional, cell-based
# [16] = target: T2, Trace amine-associated receptor 1; test: Counterscreen for agonists of the human trace amine associated receptor 1 (hTAAR1): Fluorescence-based cell-based high throughput dose response assay to identify hTAAR1 agonist that also desensitize TAAR1 receptor response.; assay type: functional
# [17] = Luminescence Cell-Based Dose Response HTS to Identify Inhibitors of 5'UTR Stem-Loop Driven Prion Protein mRNA Translation in H4 Neuroglioblastoma Cells. [Related pubchem assays: 1827 (Project Summary), 1813 (Primary HTS)]; assay type: functional
# [18] = blockade of melanocortin 4 receptor signaling – cell-based, plate reader, cherry pick, counter-screen for LGR2 antagonist project, dose response (AID 743444); assay type: functional;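 note: transfected HEK 293 cells stimulated with alpha-MSH peptide; potency of inhibitors of the alpha-MSH evoked signal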
# cells [19] = assay type: functional, cell-based; remark: listed apart in the source
# [20] = toxicity toward HepG2 liver cells – cell-based, plate reader, cherry-pick, antagonist series, cytotoxicity control, dose response (AID 743416); assay type: functional
# Ephrin type-A receptor 4 = Ephrin type-A receptor 4 (Mus musculus, UniProt Q03137); test: EphA4 ligand-binding antagonists – biochemical, colorimetric, mouse EphA4, primary screen (AID 689); assay type: functional
# Sequence of Ephrin type-A receptor 4 (Q03137 whole entry): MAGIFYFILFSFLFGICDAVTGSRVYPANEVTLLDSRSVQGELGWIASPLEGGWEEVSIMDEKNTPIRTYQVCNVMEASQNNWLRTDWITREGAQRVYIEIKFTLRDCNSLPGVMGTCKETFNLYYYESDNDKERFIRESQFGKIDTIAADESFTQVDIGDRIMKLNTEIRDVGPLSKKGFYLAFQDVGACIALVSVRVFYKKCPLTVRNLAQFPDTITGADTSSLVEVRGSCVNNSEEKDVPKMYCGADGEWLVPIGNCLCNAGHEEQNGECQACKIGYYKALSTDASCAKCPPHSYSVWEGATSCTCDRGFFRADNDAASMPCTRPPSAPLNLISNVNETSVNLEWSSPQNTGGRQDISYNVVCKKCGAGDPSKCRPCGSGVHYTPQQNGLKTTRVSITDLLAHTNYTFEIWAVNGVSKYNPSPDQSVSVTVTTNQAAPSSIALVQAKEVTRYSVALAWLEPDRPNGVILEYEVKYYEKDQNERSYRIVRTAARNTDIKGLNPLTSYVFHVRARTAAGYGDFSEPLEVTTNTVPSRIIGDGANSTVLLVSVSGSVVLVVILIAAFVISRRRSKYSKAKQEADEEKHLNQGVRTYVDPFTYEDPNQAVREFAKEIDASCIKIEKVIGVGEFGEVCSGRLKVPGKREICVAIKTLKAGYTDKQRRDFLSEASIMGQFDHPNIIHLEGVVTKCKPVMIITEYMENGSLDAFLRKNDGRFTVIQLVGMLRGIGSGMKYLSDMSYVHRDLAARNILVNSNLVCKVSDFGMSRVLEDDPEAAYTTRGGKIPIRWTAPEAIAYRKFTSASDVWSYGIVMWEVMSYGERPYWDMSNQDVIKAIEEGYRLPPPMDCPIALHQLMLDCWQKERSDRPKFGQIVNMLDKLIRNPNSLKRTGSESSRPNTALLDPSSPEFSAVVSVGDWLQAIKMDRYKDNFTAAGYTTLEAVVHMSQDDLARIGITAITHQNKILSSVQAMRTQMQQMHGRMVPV
structure (smiles),measurement,setting,value
CCCCS(=O)(=O)N1CCN(C(=O)C(=O)c2cccc(C(F)(F)F)c2)CC1,AC50,[1],49.5 µM (active)
COc1ccc(S(=O)(=O)CCc2nnc(NC(=O)c3cccs3)s2)cc1,IC50,Prothrombin,> 50 µM (not active)
COc1ccc2c3c(n(C)c2c1)[C@@H](CO)N(C(=O)C1CC1)CC31CN(C(=O)Nc2cccc(F)c2)C1,AC50,[2],0.196 µM (active)
same,AC50,[3],0.692 µM (active)
same,AC50,[4],0.209 µM (active)
same,AC50,[5],0.164 µM (active)
C/N=C1/S/C(=C\c2ccc(O)c(Br)c2)C(=O)N1C,IC50,[6],42 µM (active)
same,CC50,[7],74.9 µM (active)
same,AC50,[8],0.194 µM (active)
COc1ccccc1-c1ccc2c(c1)[C@H]1[C@H](CCN1C(=O)C1CCC1)[C@H](CO)N2,AC50,[3],5.25 µM (active)
same,AC50,[9],30.5 µM (active)
CCCCc1ccc(NC(=O)c2cc(=O)c(OC)c[nH]2)cc1,IC50,[10],> 100 µM (inactive)
same,IC50,[11],> 100 µM (inactive)
COc1cc(/C=C2\SC(Nc3ccccc3)=NC2=O)cc(Cl)c1O,IC50,[6],55.7 µM (active)
same,CC50,[7],100 µM (active)
same,AC50,[8],7.03 µM (active)
Cc1ccc(Nc2nc(N)c3ccccc3n2)cc1C,EC50,[12],4.53 µM (active)
same,AC50,[13],34 µM (active)
same,AC50,[14],2.9 µM (active)
same,EC50,cells [15],> 29.9 µM (inactive)
same,IC50,[16],8.34 µM (active)
same,EC50,[17],7.32 µM (active)
same,AC50,[18],5 µM (active)
same,IC50,cells [19],> 29.9 µM (inactive)
same,AC50,[20],2.36 µM (active)
CN1C(=O)c2cc(NC(=O)c3ccc4c(c3)OCO4)ccc2OC[C@@H]2O[C@@H](CC(=O)O)CC[C@@H]21,AC50,[9],38.5 µM (active)
Fc1ccc(-c2cc3nc4c(c(N5CCOCC5)n3n2)CCCC4)cc1,IC50,Ephrin type-A receptor 4,> 100 µM (not active)
